Marks after values point to notes of the source that are not given here.
Experiments:
[1] = system: subjects expected to require daily NSAID therapy; assay: REDUCE-1 study: adverse events
Source text: Randomization was stratified based on aspirin/anticoagulant therapy and prior ulcer history.
Secondary endpoints were UGI ulcers, duodenal ulcers, and serious GI complications

[2] = system: subjects expected to require daily NSAID therapy; assay: REDUCE-1 study: endoscopically diagnosed gastric, duodenal and UGI ulcers; format: in vivo, human; conditions: for Proportion of subjects with Duodenal Ulcer / Proportion of subjects with Gastric Ulcer / Proportion of subjects with UGI Ulcer / UGI Ulcer: Subjects with Low-dose Aspirin Use / UGI Ulcer: Subjects with Prior Ulcer: REDUCE-1, 24 weeks
Procedure: (§1) Subjects were deemed a treatment failure and terminated early from the study in the event they developed an endoscopically diagnosed UGI ulcer. Subjects who terminated early for reasons other than development of an endoscopically diagnosed UGI ulcer were to undergo an endoscopic examination at a termination visit that was conducted as soon as possible after administration of their final dose of study drug. The predefined population for primary analyses of ulcers was all subjects with ≧1 follow-up study endoscopy.

[3] = system: subjects expected to require daily NSAID therapy; assay: REDUCE-2 study: endoscopically diagnosed UGI, gastric and duodenal ulcers; format: in vivo, human
Procedure: as §1

[4] = crude proportion, listed as ibuprofen
[5] = life table estimate, listed as ibuprofen
[6] = REDUCE-1, early drop-outs imputed as treatment failures
[7] = REDUCE-2, 24 weeks, crude proportion
[8] = REDUCE-2, 24 weeks, crude proportion, listed as ibuprofen
[9] = REDUCE-2, 24 weeks, life table estimate
[10] = REDUCE-2, 24 weeks, life table estimate, listed as ibuprofen
[11] = REDUCE-2, early terminations imputed as having an ulcer

## CC(C)Cc1ccc(C(C)C(=O)O)cc1 (stereo not shown) [Ibuprofen, 2-(p-isobutylphenyl)propionic acid]
[1]
  AEs Leading to Discontinuation, Incidence (%): 7.7%
  AEs by Relatedness: Possibly Related, Incidence (%): 23.1%
  AEs by Relatedness: Probably Not Related, Incidence (%): 38.1%
  AEs by Severity: Life Threatening, Incidence (%): 0.7%
  AEs by Severity: Moderate, Incidence (%): 27.1%
  AEs by Severity: Severe, Incidence (%): 7.0%
  Abdominal Pain Upper, Incidence (%): 4.0%
  Any GI Event, Incidence (%): 27.4* %
  Cardiac Disorders, Incidence (%): 1.3%
  Constipation, Incidence (%): 4.3%
  Deaths, Incidence %: 1/0.1%
  Diarrhea, Incidence (%): 4.3%
  Dyspepsia, Incidence (%): 7.7%
  General Disorders/Administrative Site Conditions, Incidence (%): 7.7%
  Hepatobiliary Disorders, Incidence (%): 0.0%
  Hypertension, Incidence (%): 2.3%
  Injury, Poisoning, Procedural Complications, Incidence (%): 6.0%
  Investigations, Incidence (%): 5.0%
  Musculoskeletal/connective Tissue Disorders, Incidence (%): 8.0%
  Nausea, Incidence (%): 4.3%
  Nervous System Disorders, Incidence (%): 7.0%
  Renal and Urinary Disorders, Incidence (%): 1.0%
  Respiratory, Thoracic and Mediastinal Disorders, Incidence (%): 8.7%
  SAEs leading to discontinuation, Incidence %: 2/0.7%
  Subjects with at least one AE, Incidence (%): 61.2%
  Total SAEs, Incidence %: 13/4.3%
  Withdrawals due to GI, Incidence (%): 5.0%
[2]; crude proportion
  Proportion of subjects with Duodenal Ulcer: 14/262 (5.3%);
  Proportion of subjects with Gastric Ulcer: 52/262 (19.8%);
  Proportion of subjects with UGI Ulcer: 61/262 (23.3%)*;
  UGI Ulcer: Subjects with Low-dose Aspirin Use: 10/32 (31.3%);
  UGI Ulcer: Subjects with Prior Ulcer: 4/15 (26.7%);
[2]; [4]
  Proportion of subjects with Duodenal Ulcer: 5.3%
  Proportion of subjects with Gastric Ulcer: 19.8%
  Proportion of subjects with UGI Ulcer: 23.3%
[2]; life table estimate
  Proportion of subjects with Duodenal Ulcer: 7.1%
  Proportion of subjects with Gastric Ulcer: 25.3%
  Proportion of subjects with UGI Ulcer: 29.1%*
  UGI Ulcer: Subjects with Low-dose Aspirin Use: 33.3%
  UGI Ulcer: Subjects with Prior Ulcer: 27.3%
[2]; [5]
  Proportion of subjects with Duodenal Ulcer: 7.1%
  Proportion of subjects with Gastric Ulcer: 25.3%
  Proportion of subjects with UGI Ulcer: 29.1%
[2]; [6]
  Crude ulcer rate, UGI ulcer: 30.2%
  Crude ulcer rate, gastric ulcers: 26.7%
[2]; REDUCE-1, secondary efficacy endpoint
  NSAID associated serious GI complications, % of subjects: none
[3]; [7]
  Proportion of subjects with Duodenal Ulcer: 9/190 (4.7%);
  Proportion of subjects with Gastric Ulcer: 34/190 (17.9%);
  Proportion of subjects with UGI Ulcer: 38/190 (20%);
  UGI Ulcer: Subjects with Low-dose Aspirin Use: 6/23 (26.1%);
  UGI Ulcer: Subjects with Prior Ulcer: 2/11 (18.2%);
[3]; [8]
  Proportion of subjects with Duodenal Ulcer: 4.7%
  Proportion of subjects with Gastric Ulcer: 17.9%
  Proportion of subjects with UGI Ulcer: 20.0%
[3]; [9]
  Proportion of subjects with Duodenal Ulcer: 6.6%
  Proportion of subjects with Gastric Ulcer: 19.7%
  Proportion of subjects with UGI Ulcer: 22.6%
  UGI Ulcer: Subjects with Prior Ulcer: 20.0%
[3]; [10]
  Proportion of subjects with Duodenal Ulcer: 6.6%
  Proportion of subjects with Gastric Ulcer: 19.7%
  Proportion of subjects with UGI Ulcer: 22.6%
[3]; REDUCE-2, early drop-outs imputed as treatment failures
  Crude ulcer rate, UGI ulcers: 25.3%
[3]; [11]
  Crude ulcer rate, duodenal ulcer: 10.1%
  Crude ulcer rate, gastric ulcer: 23.2%

Reference: patent US20130078287A1 (Horizon Pharma USA, Inc., priority 2010, published 2013)
